The text below walks through data of patent publication US8415376B2, “Inhibitors of PI3 kinase” (Amgen Inc., priority 2008, dated 2013).

Assay [1] concerns the target T1, mTOR (Homo sapiens, UniProt P42345).
T1 construct: purchased Invitrogen (Carlsbad, Calif.)
Put plainly: In vitro mTOR assay (Lanthascreen). The class given is biochemical. The following applies: average if run more than once. The source says: The Invitrogen (Carlsbad, Calif.) mammalian target of rapamycin (mTOR) Lanthascreen assay can be used to quantitate mTOR kinase activity in an in vitro setting. Active mTOR phosphorylates eukaryotic translation initiation factor 4E binding protein 1 (4E-BP1) on residue threonine 46. This phosphorylation event can be detected with a phospho-specific terbium (Tb) labeled Ab, in turn bringing the Tb label in close proximity to the GFP tagged 4E-BP1 and allowing for time-resolved fluorescence resonance energy transfer (TR-FRET), which correlates 4E-BP1 phosphorylation levels with mTOR kinase activity.
Enzyme reaction buffer can be prepared in deionized water containing 50 mM HEPES (pH 7.5), 0.01% Polysorbate 20, 1 mM EGTA, and 10 mM MnCl2.
Dilutions of the compound to be tested can be prepared in 96-well polypropylene plates (Fisher Scientific, Waltham, Mass.). One row represents a 10-point dose of compound diluted 1:3 in enzyme reaction buffer and 20% dimethyl sulfoxide (DMSO). The top concentration for all compounds is 36 μM. Wells 6 and 12 can serve as the no compound (DMSO only) and high compound controls.
An mTOR substrate solution can prepared in enzyme reaction buffer containing 1600 nM green fluorescent protein tagged eukaryotic translation initiation factor 4E binding protein 1 (GFP-4E-BP1) (Invitrogen, Carlsbad, Calif.) and 28 uM adenosine triphosphate (ATP) (Calbiochem, Gibbstown, N.J.).
mTOR enzyme (Invitrogen, Carlsbad, Calif.) can be diluted in enzyme reaction buffer to a working concentration of 100 ng/mL.
The enzyme assay can be run in 384 well low volume assay plates (Corning, Corning, N.Y.). 2.5 uL of substrate solution containing GFP-4E-BP1 and ATP can be added to appropriate wells in the assay plate followed by 2.5 μL of compound dilutions. 5 μL of appropriately diluted mTOR enzyme can be added and the reaction allowed to proceed for 1 hour at room temperature. Final reagent concentrations in the enzyme assay are 50 ng/mL mTOR, 400 nM GFP-4E-BP1, and 7 μM ATP.
The enzyme assay can be terminated upon the addition of 10 μL of 20 mM EDTA and 4 nM Tb-labeled anti-phospho-4E-BP1 [T46] antibody (Invitrogen, Carlsbad, Calif.). The assay plate can then be incubated at room temperature for 1 hour and results read on a Tecan Safire II plate reader (Tecan, Männedorf, Switzerland).

For assay [2], the target named is T2, PI3Kα (Homo sapiens, UniProt P42336).
T2 construct: Full length p110 subunits of PI3K α, β and δ, N-terminally labeled with polyHis tag; polyHis (N); made in house; host or cells: Sf9 insect cells (baculovirus)
T2 sequence (P42336 whole entry): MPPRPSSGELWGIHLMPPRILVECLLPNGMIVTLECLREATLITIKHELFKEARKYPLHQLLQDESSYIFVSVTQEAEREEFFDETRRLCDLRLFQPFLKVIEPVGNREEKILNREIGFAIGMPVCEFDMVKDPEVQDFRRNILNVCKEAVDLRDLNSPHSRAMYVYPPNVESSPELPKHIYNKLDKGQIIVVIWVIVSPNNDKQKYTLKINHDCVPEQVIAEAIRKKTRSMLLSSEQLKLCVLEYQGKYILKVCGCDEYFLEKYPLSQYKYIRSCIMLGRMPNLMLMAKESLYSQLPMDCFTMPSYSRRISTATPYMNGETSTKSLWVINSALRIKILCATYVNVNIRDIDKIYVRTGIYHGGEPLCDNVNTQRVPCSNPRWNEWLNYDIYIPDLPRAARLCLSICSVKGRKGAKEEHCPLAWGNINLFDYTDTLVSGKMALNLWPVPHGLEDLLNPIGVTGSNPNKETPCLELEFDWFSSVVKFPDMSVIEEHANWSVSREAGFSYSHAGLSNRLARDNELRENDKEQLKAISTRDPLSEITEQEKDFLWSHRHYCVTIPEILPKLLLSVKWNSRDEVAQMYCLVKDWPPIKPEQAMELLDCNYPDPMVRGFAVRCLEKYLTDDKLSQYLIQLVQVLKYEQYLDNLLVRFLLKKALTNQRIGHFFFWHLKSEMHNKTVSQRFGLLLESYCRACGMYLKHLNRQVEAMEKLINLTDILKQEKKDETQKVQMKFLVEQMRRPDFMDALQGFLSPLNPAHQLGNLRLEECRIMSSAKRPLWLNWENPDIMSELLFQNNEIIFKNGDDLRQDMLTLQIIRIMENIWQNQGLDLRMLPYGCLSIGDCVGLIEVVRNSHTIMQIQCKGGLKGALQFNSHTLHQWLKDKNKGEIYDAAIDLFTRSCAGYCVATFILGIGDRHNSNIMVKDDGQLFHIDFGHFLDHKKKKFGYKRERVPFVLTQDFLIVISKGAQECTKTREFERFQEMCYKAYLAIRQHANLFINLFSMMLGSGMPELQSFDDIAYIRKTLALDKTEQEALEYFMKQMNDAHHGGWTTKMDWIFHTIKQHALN
T2 sequence (P27986 whole entry partner): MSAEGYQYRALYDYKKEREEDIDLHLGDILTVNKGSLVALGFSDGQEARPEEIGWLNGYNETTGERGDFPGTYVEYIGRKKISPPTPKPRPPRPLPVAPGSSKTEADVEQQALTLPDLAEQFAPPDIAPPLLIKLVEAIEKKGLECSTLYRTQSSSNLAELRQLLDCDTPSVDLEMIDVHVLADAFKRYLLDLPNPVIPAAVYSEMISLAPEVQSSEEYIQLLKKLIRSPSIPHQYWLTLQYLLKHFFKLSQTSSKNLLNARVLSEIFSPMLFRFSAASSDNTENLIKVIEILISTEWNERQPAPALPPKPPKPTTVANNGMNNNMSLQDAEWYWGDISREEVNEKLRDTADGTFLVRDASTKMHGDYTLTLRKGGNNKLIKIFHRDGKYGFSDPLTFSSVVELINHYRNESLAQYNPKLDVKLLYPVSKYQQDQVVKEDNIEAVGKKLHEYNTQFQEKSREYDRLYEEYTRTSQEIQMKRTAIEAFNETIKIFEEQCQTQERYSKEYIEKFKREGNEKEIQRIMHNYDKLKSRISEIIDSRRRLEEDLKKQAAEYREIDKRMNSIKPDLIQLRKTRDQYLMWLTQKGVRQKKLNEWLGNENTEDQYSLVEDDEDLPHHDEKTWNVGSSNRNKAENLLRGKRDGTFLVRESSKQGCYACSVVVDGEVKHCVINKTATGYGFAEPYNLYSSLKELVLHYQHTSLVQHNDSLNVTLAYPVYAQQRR
Put plainly: In vitro PI3K AlphaScreen assay. The class given is biochemical. Particulars: average if run more than once.
Protocol: In Vitro PI3K Alphascreen® Assay
The PI3K AlphaScreen® assay (PerkinElmer, Waltham, Mass.) measures the activity of a panel of four phosphoinositide 3-kinases: PI3Kα, PI3Kβ, PI3Kγ, and PI3Kδ. Each of these enzymes phosphorylates the 3′-hydroxyl group on phosphatidylinositiol (4,5)-bisphosphate (PIP2) to produce phosphatidylinositol (3,4,5)-trisphosphate (PIP3). This phosphorylation activity is measured using a GST-tagged PIP3 binding protein (Echelon Biosciences, Salt Lake City, Utah), an anti-GST-tagged Acceptor bead, and streptavidin-Donor bead. […] In the absence of this interaction, proximity of the Donor and Acceptor beads is decreased, producing a loss of luminescent signal which is inversely proportional to PI3K activity.
The enzyme reaction buffer is made using sterile water (Baxter, Deerfield, Ill.) and 50 mM Tris HCl pH 7, 14 mM MgCl2, 2 mM sodium cholate, and 100 mM NaCl. 2 mM DTT is added fresh the day of the experiment. The AlphaScreen® reaction buffer is made using sterile water and 10 mM Tris HCl pH 7.5, 150 mM NaCl, 0.10% Tween 20, and 30 mM EDTA. 1 mM DTT is added fresh the day of the experiment.
The source plates for this assay are 384-well Greiner clear polypropylene plates containing test compounds at 5mM and diluted 1:2 over 22 points. […] Source plates are replicated into 384-well Optiplates (PerkinElmer, Waltham, Mass.), 0.5 μL/well, to make assay-ready plates.
The different PI3K isoforms are each diluted in enzyme reaction buffer to 2× working solutions. […] Two different 2× substrate solutions are made in enzyme reaction buffer. In one solution, PI(4,5)P2 (Echelon Biosciences, Salt Lake City, Utah) is diluted to 10 μM and ATP is diluted to 20 μM. This solution is used in the assays testing PI3Kα and PI3Kβ. In a second solution, PI(4,5)P2 is diluted to 10 μM and ATP is diluted to 8 μM. This solution used in the assays testing PI3Kγ and PI3Kδ.
The AlphaScreen® reaction solutions are made using beads from the anti-GST AlphaScreen® kit (PerkinElmer, Waltham, Mass.). Two solutions are made in Alphascreen reaction buffer to 4× working concentrations. In one solution, biotinylated-IP4 (Echelon Biosciences, Salt Lake City, Utah) is diluted to 40 nM and streptavadin-Donor Beads are diluted to 80 μg/mL. In the second solution, PIP3-binding protein (Echelon Biosciences, Salt Lake City, Utah) is diluted to 40 nM and anti-GST-Acceptor Beads are diluted to 80 μg/mL. 10 μL/well of enzyme reaction buffer is added to Column 24 of the assay ready plates in place of enzyme. This is done for plates in the PI3Kα, β, and 67 assays.
Using a 384-well dispensing Multidrop (Titertek, Huntsville, Ala.), 10 μL/well of 2× enzyme (PI3Kα, β, δ) is added to Columns 1-23 of the appropriate assay ready plates (for PI3Kγ 10 μL is added to Columns 1-24). 10 μL/well of the appropriate substrate solution (the solution with 20 μM ATP for PI3Kα and β assays, and the solution with 8 μM ATP for PI3Kγ and δ assays) is then added to Columns 1-24 of the plates. Plates are then incubated at room temperature for 20 minutes.
In the dark, 10 μL/well of the Donor Bead solution is added to Columns 1-24 of the plates to quench the enzyme reaction. The plates are incubated at room temperature for 30 minutes. Still in the dark, 10 μL/well of the Acceptor Bead solution is also added to Columns 1-24 of the plates. The plates are then incubated in the dark for 1.5 hours. The plates are read on an Envision Multilabel Plate Reader (PerkinElmer, Waltham, Mass.) with a 680 nm excitation filter and a 520-620 nm emission filter.

Assay [3] deals with phosphorylation of Akt at Ser473. Put plainly: Cell-based phospho-Akt Ser473 assay (HCT116 cell). The following applies: HCT 116 human colon carcinoma cells, IGF-1 stimulated; average. In short, it runs like this: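 HCT116 human colon carcinoma cells, 16,000/well, were treated with compounds in a 10-point 3-fold series for 2 h at 37 °C in McCoy's with 0.1% BSA. They were then stimulated with IGF-1 at 100 ng/ml for 15 min. Phospho-Akt Ser473 in lysates was measured by MSD electrochemiluminescent sandwich immunoassay, and IC50 came from dose-response.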

Assay [4] deals with T3, PI3Kβ (Homo sapiens, UniProt P42338).
T3 construct: Full length p110 subunits of PI3K α, β and δ, N-terminally labeled with polyHis tag; polyHis (N); made in house; host or cells: Sf9 insect cells (baculovirus)
T3 sequence (P42338 whole entry): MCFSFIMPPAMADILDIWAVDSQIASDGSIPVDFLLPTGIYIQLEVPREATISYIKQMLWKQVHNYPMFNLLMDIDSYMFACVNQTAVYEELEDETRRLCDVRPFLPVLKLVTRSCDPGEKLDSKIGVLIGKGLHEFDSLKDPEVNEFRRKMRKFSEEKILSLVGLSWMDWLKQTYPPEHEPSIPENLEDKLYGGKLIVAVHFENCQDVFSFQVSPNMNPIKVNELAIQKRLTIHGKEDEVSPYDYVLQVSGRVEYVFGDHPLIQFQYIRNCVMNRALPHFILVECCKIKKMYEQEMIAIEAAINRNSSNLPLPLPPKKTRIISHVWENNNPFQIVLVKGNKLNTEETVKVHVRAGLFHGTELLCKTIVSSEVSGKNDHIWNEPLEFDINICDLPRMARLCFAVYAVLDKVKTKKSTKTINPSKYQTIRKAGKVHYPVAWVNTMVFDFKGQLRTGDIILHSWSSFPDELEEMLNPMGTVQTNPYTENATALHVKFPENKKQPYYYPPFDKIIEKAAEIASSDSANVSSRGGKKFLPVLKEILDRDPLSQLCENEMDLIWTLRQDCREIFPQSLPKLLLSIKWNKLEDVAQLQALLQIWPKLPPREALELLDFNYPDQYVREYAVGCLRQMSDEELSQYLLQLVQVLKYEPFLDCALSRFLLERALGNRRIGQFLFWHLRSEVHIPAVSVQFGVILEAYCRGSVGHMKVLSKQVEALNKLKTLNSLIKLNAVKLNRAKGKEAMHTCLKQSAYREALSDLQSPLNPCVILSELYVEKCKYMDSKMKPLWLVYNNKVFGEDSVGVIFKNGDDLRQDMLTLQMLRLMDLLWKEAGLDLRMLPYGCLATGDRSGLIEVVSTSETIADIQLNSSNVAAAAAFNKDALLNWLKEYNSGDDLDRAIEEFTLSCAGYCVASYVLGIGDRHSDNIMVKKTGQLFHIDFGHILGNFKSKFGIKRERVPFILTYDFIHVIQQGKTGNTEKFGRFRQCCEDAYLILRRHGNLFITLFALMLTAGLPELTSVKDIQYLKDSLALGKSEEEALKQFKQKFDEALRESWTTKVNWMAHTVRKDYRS
T3 sequence (P27986 whole entry partner): as the sequence (P27986 whole entry partner) above
Put plainly: In vitro PI3 kinase enzyme assay (PI3K ATP loss), beta. The assay is classed as biochemical. Particulars: average if run more than once.
Protocol: (§1) Full length p110 subunits of PI3K α, β and δ, N-terminally labeled with polyHis tag, can be co-expressed with p85 with Baculo virus expression vectors in sf9 insect cells. P110/p85 heterodimers can be purified by sequential Ni-NTA, Q-HP, Superdex-100 chromatography. Purified α, β and δ isozymes can be stored at −20° C. in 20 mM Tris, pH 8, 0.2M NaCl, 50% glycerol, 5 mM DTT, 2 mM Na cholate. […] The γ isozyme can be purified by sequential Ni-NTA, Superdex-200, Q-HP chromatography. The γ isozyme can be stored frozen at −80° C. in NaH2PO4, pH 8, 0.2M NaCl, 1% ethylene glycol, 2 mM β-mercaptoethanol.
(§2) In Vitro PI3 Kinase Enzyme Assays (PI3K Atploss)
(§3) PI3K enzyme assays (alpha, beta, delta and gamma) can be performed in 25 μL with the above final concentrations of components in white polyproplyene plates. Phosphatidyl inositol phosphoacceptor, PtdIns(4,5)P2 (eg. P4508) can be obtained from Echelon Biosciences, Salt Lake City, Utah. […] Test compounds can be dissolved in DMSO and diluted with three-fold serial dilutions. The compound in DMSO (1 μL) may be added per test well, and the inhibition relative to reactions containing no compound, with and without enzyme can be determined After assay incubation at RT, the reaction can be stopped and residual ATP can be determined by addition of an equal volume of a commercial ATP bioluminescence kit (Perkin Elmer EasyLite, Perkin Elmer, Waltham, Mass.) according to the manufacturer's instructions, and detected using an Analyst GT luminometer.

The target of assay [5] is T2, PI3Kα. Put plainly: In vitro PI3 kinase enzyme assay (PI3K ATP loss), alpha. The assay is classed as biochemical. The following applies: average if run more than once; read-out: ATP Loss (PBKα) IC50 μM (Avg).
Protocol: as §1, §2, §3

T1 sequence (P42345 1360-2549 limits assumed): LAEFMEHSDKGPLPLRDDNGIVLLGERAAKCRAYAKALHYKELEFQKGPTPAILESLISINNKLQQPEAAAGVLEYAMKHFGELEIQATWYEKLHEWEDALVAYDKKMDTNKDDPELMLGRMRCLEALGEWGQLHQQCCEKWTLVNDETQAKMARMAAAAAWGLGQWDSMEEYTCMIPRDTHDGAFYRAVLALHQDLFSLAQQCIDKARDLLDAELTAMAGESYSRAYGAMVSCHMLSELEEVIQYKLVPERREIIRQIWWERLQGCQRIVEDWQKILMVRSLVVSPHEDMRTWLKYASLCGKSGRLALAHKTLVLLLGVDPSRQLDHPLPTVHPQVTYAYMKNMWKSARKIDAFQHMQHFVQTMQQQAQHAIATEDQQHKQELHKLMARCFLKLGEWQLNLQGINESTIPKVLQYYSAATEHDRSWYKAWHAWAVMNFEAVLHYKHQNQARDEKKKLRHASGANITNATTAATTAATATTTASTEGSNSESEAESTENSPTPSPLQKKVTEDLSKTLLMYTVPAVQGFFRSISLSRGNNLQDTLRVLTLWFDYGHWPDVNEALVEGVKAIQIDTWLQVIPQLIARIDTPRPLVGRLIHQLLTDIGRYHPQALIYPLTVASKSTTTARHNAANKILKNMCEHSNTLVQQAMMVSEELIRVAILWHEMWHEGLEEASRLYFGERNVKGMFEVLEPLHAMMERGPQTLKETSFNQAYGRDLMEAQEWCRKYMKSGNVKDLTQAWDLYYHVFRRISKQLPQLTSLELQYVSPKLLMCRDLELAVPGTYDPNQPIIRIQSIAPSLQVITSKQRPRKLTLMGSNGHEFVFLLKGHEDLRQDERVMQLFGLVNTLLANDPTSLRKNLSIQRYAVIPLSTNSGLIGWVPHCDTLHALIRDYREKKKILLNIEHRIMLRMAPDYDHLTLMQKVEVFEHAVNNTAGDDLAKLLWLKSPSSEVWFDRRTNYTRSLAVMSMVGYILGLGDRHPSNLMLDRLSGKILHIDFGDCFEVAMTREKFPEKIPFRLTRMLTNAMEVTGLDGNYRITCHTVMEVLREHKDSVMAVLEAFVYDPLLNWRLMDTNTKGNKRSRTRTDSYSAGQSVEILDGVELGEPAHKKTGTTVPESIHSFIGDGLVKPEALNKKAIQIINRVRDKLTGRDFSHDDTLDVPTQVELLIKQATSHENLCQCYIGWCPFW

`COc1ccc(S(=O)(=O)Nc2cc(-c3ccc4c(c3)OCCO4)cnc2Cl)cc1` [Example 127, N-(2-Chloro-5-(2,3-dihydrobenzo[b][1,4]dioxin-6-yl)pyridin-3-yl)-4-methoxybenzenesulfonamide] had a 50% inhibitory concentration (IC50) in assay [1] of 0.0651 µM. This molecule also displayed an inhibitory constant (Ki) in assay [2] of 0.0273 µM.

On to `O=S(=O)(Nc1cc(N2CCc3ncccc3C2)cnc1Cl)c1ccc(F)cc1` [Example 135, N-(2-Chloro-5-(7,8-dihydro-1,6-naphthyridin-6(5H)-yl)pyridin-3-yl)-4-fluorobenzenesulfonamide], for which, in assay [1], the IC50 stood at 0.218 µM. This molecule gave a Ki in assay [2] of 0.0638 µM.

Turning to `O=S(=O)(Nc1cc(-c2ccc3ncc(N4CCCCC4)nc3c2)cnc1Cl)c1ccc(F)cc1` [Example 54, N-(2-chloro-5-(3-(1-piperidinyl)-6-quinoxalinyl)-3-pyridinyl)-4-fluorobenzenesulfonamide], the IC50 in assay [3] was determined as 0.141 µM; in assay [4], 0.0842 µM; in assay [5], 0.0027 µM.

With `COc1cnc2ccc(-c3cnc(Cl)c(NS(=O)(=O)c4ccc(F)cc4)c3)cc2c1` [Example 4, N-(2-chloro-5-(3-methoxy-6-quinolinyl)-3-pyridinyl)-4-fluorobenzenesulfonamide], the IC50 in assay [3] was 0.186 µM; in assay [4] it was 0.0253 µM; in assay [5], 0.0162 µM.

Regarding `COc1ccc(S(=O)(=O)Nc2cc(-c3ccc4nccc(N5CCC(OC)CC5)c4c3)cnc2Cl)cc1` [Example 50, N-(2-chloro-5-(4-(4-methoxy-1-piperidinyl)-6-quinolinyl)-3-pyridinyl)-4-methoxybenzenesulfonamide], the results for the IC50 in assay [3], in assay [4] and in assay [5] were 0.107 µM, 0.0366 µM and 0.003 µM, respectively.

In assay [1], `O=S(=O)(Nc1cc(-c2ccc3nccc(N4CCCC(O)CC4)c3c2)cnc1Cl)c1ccc(F)cc1` (centres unmarked) [Example 95, N-(2-chloro-5-(4-(4-hydroxy-1-azepanyl)-6-quinolinyl)-3-pyridinyl)-4-fluorobenzenesulfonamide] displayed an IC50 of 0.111 µM. In assay [2], this molecule displayed a Ki of 0.0058 µM.

Molecule `O=S(=O)(Nc1cc(-c2ccc3nccc(OCC4CCSCC4)c3c2)cnc1Cl)c1ccc(F)cc1` [Example 100, N-(2-chloro-5-(4-(tetrahydro-2H-thiopyran-4-ylmethoxy)-6-quinolinyl)-3-pyridinyl)-4-fluorobenzenesulfonamide] yielded an IC50 in assay [1] of 0.04 µM. The molecule also showed a Ki in assay [2] of 0.0012 µM.

The molecule `O=C1COc2ccc(-c3cnc(Cl)c(NS(=O)(=O)c4ccc(F)cc4)c3)cc2N1` [Example 129, N-(2-Chloro-5-(3-oxo-3,4-dihydro-2H-benzo[b][1,4]oxazin-6-yl)pyridin-3-yl)-4-fluorobenzenesulfonamide] showed a Ki in assay [2] of 0.0858 µM.

As to `O=S(=O)(Nc1cc(-c2ccc3nccc(N4CCOCC4)c3c2)cnc1Cl)c1ccccc1Cl` [Example 33, 2-chloro-N-(2-chloro-5-(4-(4-morpholinyl)-6-quinolinyl)-3-pyridinyl)benzenesulfonamide], the values for the IC50 in assay [3], in assay [4] and in assay [5] were 0.0063 µM, 0.0219 µM and 0.0041 µM, respectively.

For `O=S(=O)(Nc1cc(-c2ccc3nccc(-c4ccccc4)c3c2)cnc1Cl)c1ccc(F)cc1` [Example 36, N-(2-chloro-5-(4-phenyl-6-quinolinyl)-3-pyridinyl)-4-fluorobenzenesulfonamide], the IC50 in assay [3] turned out to be 0.0914 µM; in assay [4] it was 0.0149 µM; in assay [5], 0.0071 µM.

Take `COCC(C)Nc1ccnc2ccc(-c3cnc(Cl)c(NS(=O)(=O)c4ccc(F)cc4)c3)cc12` (centres unmarked) [Example 99, N-(2-chloro-5-(4-((2-methoxy-1-methylethyl)amino)-6-quinolinyl)-3-pyridinyl)-4-fluorobenzenesulfonamide]: half-maximal inhibition in assay [1] (IC50) required 2.39 µM. In assay [2], this molecule registered a Ki of 0.121 µM.

For the molecule `CC1CN(c2cnc3ccc(-c4cnc(Cl)c(NS(=O)(=O)c5ccc(F)cc5)c4)cc3n2)CC(C)O1` (centres unmarked) [Example 67, N-(2-chloro-5-(3-(2,6-dimethyl-4-morpholinyl)-6-quinoxalinyl)-3-pyridinyl)-4-fluorobenzenesulfonamide], the values for the IC50 in assay [3], in assay [4] and in assay [5] were 0.0203 µM, 0.0648 µM and 0.0029 µM, respectively.

Turning to `O=S(=O)(Nc1cc(-c2ccc3ncc(N4CCC(F)(F)CC4)nc3c2)cnc1Cl)c1ccc(F)cc1` [Example 58, N-(2-chloro-5-(3-(4,4-difluoro-1-piperidinyl)-6-quinoxalinyl)-3-pyridinyl)-4-fluorobenzenesulfonamide], the IC50 in assay [3] was 0.0635 µM; in assay [4] it was 0.0824 µM; in assay [5] it was 0.0034 µM.

Consider `COc1cnc2ccc(-c3cnc(Cl)c(NS(C)(=O)=O)c3)cc2c1` [Example 10, N-(2-chloro-5-(3-methoxy-6-quinolinyl)-3-pyridinyl)methanesulfonamide], for which the results for the IC50 in assay [3], in assay [4] and in assay [5] were 0.348 µM, 0.166 µM and 0.0424 µM, respectively.

For `CC1CN(c2ccnc3ccc(-c4cnc(Cl)c(NS(=O)(=O)c5ccc(F)cc5)c4)cc23)CC(C)O1` (centres unmarked) [Example 30, N-(2-chloro-5-(4-(2,6-dimethyl-4-morpholinyl)-6-quinolinyl)-3-pyridinyl)-4-fluorobenzenesulfonamide], the values for the IC50 in assay [3], in assay [4] and in assay [5] were 0.0228 µM, 0.0302 µM and 0.0041 µM, respectively.

For `COc1ccc(S(=O)(=O)Nc2cc(-c3ccc4nc(NC(C)=O)ccc4c3)cnc2Cl)cc1` [Example 45, N-(6-(6-chloro-5-(((4-methoxyphenyl)sulfonyl)amino)-3-pyridinyl)-2-quinolinyl)acetamide], the values for the IC50 in assay [3], in assay [4] and in assay [5] were 0.0646 µM, 0.0597 µM and 0.0192 µM, respectively.
